According to ChEMBL document CHEMBL4371028, “Designing de Novo Small Molecules That Control Heat Shock Protein 70 (Hsp70) and Heat Shock Organizing Protein (HOP) within the Chaperone Protein-Folding Machinery” (J Med Chem, 2019):
Calls of active or inactive are those of the source. The calls are words filed in the database; no cut-off is given here. Peptide text beside a SMILES is read from it. * marks the point of attachment. Biotin = O=C1N[C@H]2[C@H](CS[C@H]2CCCCC(=O)*)N1; PEG4 = NCCOCCOCCOCCOCCC(=O)O

Experiments:
[1] = molecular target: Stress-induced-phosphoprotein 1 (Homo sapiens) (UniProt P31948); assay: Inhibition of (2S,8S,11S,14S)-2-(4-aminobutyl)-14-(3-guanidinopropyl)-8-(4-hydroxybenzyl)-11-(hydroxymethyl)-4,7,10,13,16,32-hexaoxo-36-((3aS,4S,6aR)-2-oxohexahydro-1H-thieno[3,4-d]imidazol-4-yl)-19,22,25,28-tetraoxa-3,6,9,12,15,31-hexaazahexatriacontan-1-oic acid binding to His-tagged human HOP expressed in Escherichia coli up to 200 uM by Western blot analysis
Homo sapiens [2] = organism: Homo sapiens; assay: Binding affinity to human recombinant Hsp70 expressed in Escherichia coli at 10 to 200 uM in presence of 1% Triton-X-100 after 1 hr by Western blot analysis based pull down assay
[3] = molecular target: Heat shock protein HSP90 (Homo sapiens) (UniProt P07900+P08238); assay: Binding affinity to Hsp90 (unknown origin) at 10 to 200 uM after 1 hr by Western blot analysis based pull down assay; assay type: protein assay
Homo sapiens [4] = organism: Homo sapiens; assay: Binding affinity to human recombinant Hsp70 expressed in Escherichia coli in presence of 1% Triton-X-100 after 1 hr by Western blot analysis based pull down assay

Sequence of Stress-induced-phosphoprotein 1 (Homo sapiens) (P31948 whole entry, looked up): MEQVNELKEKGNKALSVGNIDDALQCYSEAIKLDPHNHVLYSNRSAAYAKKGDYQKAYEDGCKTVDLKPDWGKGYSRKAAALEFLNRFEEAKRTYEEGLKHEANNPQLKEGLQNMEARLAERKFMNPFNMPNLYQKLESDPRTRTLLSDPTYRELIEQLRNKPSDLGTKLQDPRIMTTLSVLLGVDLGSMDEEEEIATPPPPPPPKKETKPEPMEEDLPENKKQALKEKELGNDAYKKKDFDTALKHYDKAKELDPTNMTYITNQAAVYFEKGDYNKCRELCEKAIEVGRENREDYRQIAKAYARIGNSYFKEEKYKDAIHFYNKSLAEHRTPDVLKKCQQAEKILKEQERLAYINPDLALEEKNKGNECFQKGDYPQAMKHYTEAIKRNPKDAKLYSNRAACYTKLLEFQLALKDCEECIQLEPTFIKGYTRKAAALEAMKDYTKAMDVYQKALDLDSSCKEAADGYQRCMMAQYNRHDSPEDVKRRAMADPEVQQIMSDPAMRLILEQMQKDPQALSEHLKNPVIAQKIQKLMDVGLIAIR

Row | inhibition [1] | Activity (Homo sapiens [2]) | Activity [3] | Activity (Homo sapiens [4]) | SMILES
1 | Active | – | – | – | N=C(N)NCCC[C@H](NC(=O)[C@H](CO)NC(=O)[C@H](Cc1ccc(O)cc1)NC(=O)CNC(=O)[C@@H](N)CCCCN)C(=O)O (H-KGYSR-OH)
2 | – | inactive | inactive | – | CC(C)C[C@H](NC(=O)[C@H](C)NC(=O)[C@H](C)NC(=O)CCOCCOCCOCCOCCNC(=O)CCCC[C@@H]1SC[C@@H]2NC(=O)N[C@@H]21)C(=O)N[C@@H](CCC(=O)O)C(=O)N[C@@H](Cc1ccccc1)C(=O)O ({Biotin-PEG4}-AALEF-OH)
3 | – | – | inactive | Dose-dependent effect | N=C(N)NCCC[C@H](NC(=O)[C@H](CO)NC(=O)[C@H](Cc1ccc(O)cc1)NC(=O)CNC(=O)[C@H](CCCCN)NC(=O)CCOCCOCCOCCOCCNC(=O)CCCC[C@@H]1SC[C@@H]2NC(=O)N[C@@H]21)C(=O)O ({Biotin-PEG4}-KGYSR-OH)
